We go through three compounds from PubChem BioAssay (NCI).

“And” between values parts separate entries of the source, which are not always exact repeats. Identical values can stand only once.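 Step 1: Grow cells in 96-well plates. Step 2: Expose to compound for 48 hours at 5 concentrations. Step 3: Interpolate endpoints linearly; if unreached, use highest concentration. Here, GI50 denotes the concentration required for 50% inhibition of growth. TGI: total growth inhibition.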

Test systems include OVCAR-3 ovarian; HCT-15 colon; MDA-MB-231 breast; SW-620 colon; OVCAR-8 ovarian; OVCAR-5 ovarian; NCI-H226 lung; SNB-75 CNS; SR leukemia; SNB-19 CNS.
Experiment in all cases: DTP human tumour cell line panel, 48 h

What is called GI50 is the concentration that inhibits growth by half. Broadly, the TGI is the concentration giving total growth inhibition. Read a low TGI as more potent growth arrest. Turning to `CNC(=O)c1cc(Oc2ccc(NC(=O)Nc3ccc(Cl)c(C(F)(F)F)c3)c(F)c2)ccn1`, the GI50 in the assay with OVCAR-3 ovarian is 3.05 µM and 3.03 µM; with HCT-15 colon, 3 µM and 2.35 µM; in the assay with MDA-MB-231 breast, 1.22 µM and 1.26 µM; in the assay with SW-620 colon, 2.23 µM and 2.47 µM; in the assay on OVCAR-8 ovarian it was 2.39 µM and 2.31 µM; in the assay with OVCAR-5 ovarian, 2.68 µM and 2.3 µM. Moreover, the GI50 in the assay with NCI-H226 lung is 2.15 µM and 0.988 µM; in the assay on SNB-75 CNS, 1.71 µM and 1.67 µM; with SR leukemia, 1.9 µM and 2.63 µM; in the assay on SNB-19 CNS, 4.27 µM and 4.06 µM. The TGI in the assay on OVCAR-3 ovarian is 11.6 µM and > 10 µM; in the assay with HCT-15 colon, > 32.9 µM and 9.96 µM; in the assay on MDA-MB-231 breast, 4.44 µM and 4.92 µM; with SW-620 colon, 14.9 µM and > 10 µM; with OVCAR-8 ovarian it was > 20.8 µM and 8.28 µM; with OVCAR-5 ovarian, over 44.4 µM. Further, the TGI in the assay with NCI-H226 lung is 8.01 µM and 8.05 µM; with SNB-75 CNS, 7.01 µM and > 10 µM; with SR leukemia it was 4.38 µM and > 10 µM; in the assay with SNB-19 CNS it was over 41.6 µM.
As for `CCc1ccc(CCC(=O)Nc2ncc(Cc3ccc(Cl)cc3)s2)o1`, the GI50 in the assay on OVCAR-3 ovarian was 0.248 µM; in the assay on HCT-15 colon, 0.356 µM; in the assay with MDA-MB-231 breast, 0.699 µM; in the assay with SW-620 colon, 0.375 µM; in the assay on OVCAR-8 ovarian, 0.572 µM; with OVCAR-5 ovarian, 0.615 µM. In addition, the GI50 was 0.195 µM in the assay on SNB-75 CNS, 0.419 µM in the assay on SR leukemia and 0.463 µM in the assay on SNB-19 CNS. In addition, the TGI is 0.682 µM with OVCAR-3 ovarian; over 100 µM in the assay on HCT-15 colon; over 100 µM in the assay on MDA-MB-231 breast; over 100 µM in the assay with SW-620 colon; over 100 µM in the assay on OVCAR-8 ovarian; over 100 µM in the assay on OVCAR-5 ovarian. Further, the TGI was over 100 µM in the assay with NCI-H226 lung, 0.771 µM in the assay on SNB-75 CNS, over 100 µM in the assay on SR leukemia and over 100 µM with SNB-19 CNS.
In the case of `CC(C)(C)c1ccc(Oc2ccc(N)cn2)cc1`, the GI50 in the assay on OVCAR-3 ovarian was 26 µM; with HCT-15 colon, 43.9 µM; in the assay with MDA-MB-231 breast, 31.7 µM; in the assay on SW-620 colon it was over 100 µM; in the assay with OVCAR-8 ovarian, 75.6 µM; in the assay with OVCAR-5 ovarian it was over 100 µM. The GI50 in the assay with NCI-H226 lung was 44.5 µM; with SNB-75 CNS it was 10.9 µM; in the assay on SR leukemia it was 30 µM; in the assay on SNB-19 CNS it was over 100 µM. Moreover, the TGI in the assay with OVCAR-3 ovarian, with HCT-15 colon, in the assay on MDA-MB-231 breast, in the assay on SW-620 colon, with OVCAR-8 ovarian and in the assay with OVCAR-5 ovarian was over 100 µM throughout. Besides, the TGI with NCI-H226 lung, in the assay with SNB-75 CNS, in the assay on SR leukemia and in the assay on SNB-19 CNS was over 100 µM in each case.
